Results on five compounds are retold here after patent US20240217988A1, “ESTROGEN RECEPTOR ANTAGONIST” (Shenzhen Forward Pharmaceuticals Co., Limited, priority 2021, published 2024).

Series [1] deals with Human breast cancer cells MCF-7. In words: MCF-7 cell proliferation experiment. The series is classed as cell-based. The note with it: Homo sapiens, MCF7; MCF-7 cells, 72 hours, Cell Titer-Glo. The procedure: Test Example 2: MCF-7 Cell Proliferation Experiment
Human breast cancer cells MCF-7 (HTB-22, purchased from ATCC) were inoculated into a 96-well plate. The culture medium was an MEM (Hyclone, SH30024.01B) culture medium containing 10% of FBS (Gibco, 10099-141), 1% of pyruvic acid (Sigma, S8636), and 1% of nonessential amino acid (Sigma, M7145), and the inoculation density was 4,000 cells/well. The cells were cultured at 37° C., 5% CO2. The compound was prepared into a 20 mM stock solution, which was subjected to gradient dilution to a final concentration of […] with 100% DMSO (Sigma, D2650) and then diluted 20 folds with a culture medium containing 2% of FBS. After 24 hours of culture, the culture medium was removed, 90 μL of a culture medium containing 2% of FBS and 10 μL of drug were added to each well, while 10 μL of DMSO was added to the control group, and they were gently shaken and mixed. The blank group only contained 100 μL of 2% FBS culture medium. They were placed in an incubator and cultured at 37° C., 5% CO2. After 72 hours, 50 μL of mixed Cell Titer-Glo (Promega, G7571) was added. They were shaken and mixed uniformly, and placed at room temperature for 10 min. The chemiluminescence signal value was determined. The negative control was 0.5% DMSO well.

Series [2] in a line: Stability in human liver microsomes in vitro. The series is classed as in vitro ADME. The note with it: human liver microsomes; for half-life: microsome protein 1 mg/mL working solution, NADPH; for CLint scaled: scaled to liver; for microsomal CLint: read-out: CLint(mic). The procedure:
Test Example 4: Test for Stability in Human Liver Microsomes In Vitro Eight 96-well incubation plates were prepared and named [NT], Blank60 and NCF60, respectively. […] No test compound or control compound was added to Blank60 plate, and samples were taken after incubation for 60 min. NCF60 plate was incubated with a potassium phosphate buffer instead of an NADPH regeneration system solution (Sigma, N0505) for 60 min. […] Only the microsome working solution was added to Blank60 plate, and the incubation plates Blank60, T5, T15, T30, T45 and T60 except T0 and NCF60 were then placed in a water bath at 37° C. and pre-incubated for about 10 min. To the samples of T0 plate, 600 μL of a stop solution (acetonitrile:methanol (95:5, v/v) solution containing 100 ng/mL of tolbutamide (Sigma, T0891)) was added first, and the NADPH regeneration system working solution was then added. 98 μL of a potassium phosphate buffer was added to each well of NCF60 plate and incubated for 60 min. After the pre-incubation in the incubation plates Blank60, T5, T15, T30, T45 and T60 was completed, 98 μL of the NADPH regeneration system working solution was added to each sample well to initiate the reaction. After an appropriate incubation time (such as 5, 15, 30, 45 and 60 min), 600 μL of a stop solution was added to each sample well and the control sample well in Blank60, […] the reaction. All the sample plates were shaken uniformly and centrifuged at 3220×g for 20 min. 200 μL of test sample supernatant was separately taken and diluted in 200 μL of an aqueous solution containing 0.3% formic acid for LC-MS/MS analysis, and 100 μL of control sample supernatant was taken and diluted in 300 μL of pure water for LC-MS/MS analysis. Calculation was performed according to the following formula: [formula] [formula] [formula] [formula] [formula] [formula]

The target of series [3] is GST-ERα-LBD (Homo sapiens (Human), UniProt P03372). In words: ERα TR-FRET test. The series is classed as biochemical. To be noted: estradiol final concentration 1.5 nM, biotin-SRC2. The protocol:
1× Tris-HCl (Sigma, PHG0002) protein buffer was prepared and mixed for later use. The compound to be detected was prepared into a stock solution with a concentration of 2 mM and then subjected to serial 3-fold gradient dilution, resulting in a total of 10 concentrations.
Preparation of 1× protein mixed solution: firstly, 2× GST-ERα-LBD (Invitrogen, A15677)/MAb anti-GST-Eu (Cisbio, 61GSTKLA) mixed solution was prepared according to the following table.
2× biotin-SRC2/streptavidin-XL665 (Cisbio, 610SAXLA) mixed solution was prepared.
The above 2× GST-NR-LBD/ MAb anti-GST-Eu solution and 2× biotin-SRC2/streptavidin-XL665 solution were uniformly mixed at a volume ratio of 1:1; and the 1× protein mixed solution was added to each well of a 384-well plate, with 20 μL being added per well, the 384-well plate was put into a centrifuge and centrifuged at room temperature at 1000 rpm for 10 seconds, and it was taken out, then left to stand at room temperature for 3 h, and then read by EnVision multifunctional microplate reader.
The inhibition rate was calculated according to the following formula: […]
The data were imported into Graphpad Prism, and Log(agonist) vs. response-variable slope was used for curve fitting.
Y=Bottom+(Top−Bottom)/(1+10^((LogEC50−X)*HillSlope)) Fitting formula

The target of series [4] is ERα (Homo sapiens (Human), UniProt P03372). In words: Degradation effect of compound on ERα (ERα DuoSet IC ELISA in MCF-7 cells). The series is classed as cell-based. The note with it: 24 h with compound, read-out: IC50 value of ERα degradation by compound. The procedure:
In this test example, ERα DuoSet IC ELISA Kit (R&D, DYC5715) was used to detect the degradation effect of the compound on ERα. On the first day of the experiment, human breast cancer cells MCF-7 (the source was as above) were inoculated into a 24-well plate. The culture medium was an MEM culture medium containing 10% of activated-carbon-treated FBS (Tocyto, UT61204), 1% of pyruvic acid and 1% of nonessential amino acid. The inoculation density was 150,000 cells/well. The cells were cultured at 37° C., 5% CO2 for 24 h.
On the second day of the experiment, the compound to be tested was diluted in gradient and added to a 24-well plate containing cells. The cells were cultured for 24 h at 37° C., 5% CO2. ERα capture antibody was diluted to 1 μg/ml with PBS (Corning, 21-040-CVR) and added to a 96-well plate at 100 μL/well, and the plate was […] coated overnight at room temperature.
On the third day of the experiment, the coated 96-well plate was washed three times with PBS, 300 μL of a blocking solution (R&D, DY995) was added to each well, and the plate was blocked at room temperature for 1 h. The 24-well plate was washed once with PBS, and the residual liquid was sucked off. […] The diluted cell lysate was taken and added to the blocked 96-well plate, with 100 μL per well, and incubated at room temperature for 2 h. The plate was washed three times with a washing solution (R&D, WA126), and a primary antibody was then added. After incubation for 1 h, the 96-well plate was washed four times, a secondary antibody was added, and incubation was carried out at room temperature in the dark for 30 min. The plate was washed four times with the washing solution, and TMB (R&D, DY999) was added. After 15 minutes of development, the reaction was terminated with a stop solution (R&D, DY994), and the light absorption at 450 nm was read.

GST-ERα-LBD, sequence (P03372 311-547): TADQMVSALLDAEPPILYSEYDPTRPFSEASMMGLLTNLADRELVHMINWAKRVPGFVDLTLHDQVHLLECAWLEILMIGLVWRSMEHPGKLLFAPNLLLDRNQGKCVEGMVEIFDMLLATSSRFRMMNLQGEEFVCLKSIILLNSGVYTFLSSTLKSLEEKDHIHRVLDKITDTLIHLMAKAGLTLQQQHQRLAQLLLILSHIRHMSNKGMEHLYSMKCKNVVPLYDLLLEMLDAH
ERα, sequence (P03372 whole entry): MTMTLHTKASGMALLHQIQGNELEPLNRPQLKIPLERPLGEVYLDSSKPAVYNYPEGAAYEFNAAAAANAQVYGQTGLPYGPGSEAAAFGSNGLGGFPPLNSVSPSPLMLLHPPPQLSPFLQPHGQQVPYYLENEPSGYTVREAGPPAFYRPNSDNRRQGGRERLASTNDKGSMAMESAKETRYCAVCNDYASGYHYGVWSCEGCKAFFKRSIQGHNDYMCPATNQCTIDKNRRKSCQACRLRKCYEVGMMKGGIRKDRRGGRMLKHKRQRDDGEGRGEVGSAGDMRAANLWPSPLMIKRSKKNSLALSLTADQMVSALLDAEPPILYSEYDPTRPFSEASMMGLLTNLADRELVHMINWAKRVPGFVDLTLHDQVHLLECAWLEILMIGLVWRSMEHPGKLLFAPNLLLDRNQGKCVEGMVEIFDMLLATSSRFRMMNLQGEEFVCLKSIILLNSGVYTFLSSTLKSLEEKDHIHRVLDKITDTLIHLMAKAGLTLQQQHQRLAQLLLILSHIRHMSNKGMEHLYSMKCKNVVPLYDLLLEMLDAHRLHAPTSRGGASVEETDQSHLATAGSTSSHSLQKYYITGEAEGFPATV

Regarding `COc1cc(NC2CN(CCCF)C2)ccc1[C@@H]1c2ccc3[nH]c(=O)oc3c2C[C@@H](C)N1CC(F)(F)F` [Example 25, (6S,8R)-6-(4-((1-(3-fluoropropyl)azetidin-3-yl)amino)-2-methoxyphenyl)-8-methyl-7-(2,2,2-trifluoroethyl)-6,7,8,9-6,7,8,9-tetrahydrooxazolo[5,4-f]isoquinolin-2(3H)-one], 0.24 nM corresponded to half-maximal inhibition in series [1] (IC50). In series [2], the half-life was found to be 106 min, the intrinsic clearance (CLint scaled) is 8.4 mL/min/kg and the microsomal CLint was determined as 9.6 µL/min/mg. Besides, in series [3], 11.4 nM corresponded to half-maximal inhibition (IC50). In addition, the DC50 in series [4] turned out to be 0.34 nM.
In turn, `CC(C)CN1[C@H](c2c(F)cc(OCCN3CC(CF)C3)cc2F)c2ccc3[nH]c(=O)oc3c2C[C@H]1C` [Example 1] came in with an IC50 in series [1] of 0.39 nM. Moreover, in series [2], the half-life was 91.8 min, the CLint scaled is 13.6 mL/min/kg and the microsomal CLint turned out to be 15.1 µL/min/mg. Half-maximal inhibition in series [3] (IC50) was put at 9 nM. Moreover, the DC50 in series [4] came out at 0.62 nM.
`COc1cc(NC2CN(CCCF)C2)cc(F)c1[C@@H]1c2ccc3[nH]c(=O)oc3c2C[C@@H](C)N1CC(F)(F)F` [Example 34, (6S,8R)-6-(4-((1-(3-fluoropropyl)azetidin-3-yl)amino)-2-methoxy-6-fluoro-phenyl)-8-methyl-7-(2,2,2-trifluoroethyl)-6,7,8,9-6,7,8,9-tetrahydrooxazolo[5,4-f]isoquinolin-2(3H)-one] gave an IC50 in series [1] of 0.19 nM. In series [2], the half-life amounted to 107 min, the CLint scaled is 8.9 mL/min/kg and the microsomal CLint was found to be 10.1 µL/min/mg. Besides, in series [3], the IC50 was determined as 19.4 nM. Moreover, the DC50 in series [4] came out at 0.24 nM.
The compound `C[C@@H]1Cc2c(ccc3[nH]c(=O)oc23)[C@@H](c2c(F)cc(OC3CN(CCCF)C3)cc2F)N1CC(F)(F)F` [Example 12, (6S,8R)-6-(2,6-difluoro-4-((1-(3-fluoropropyl)azetidin-3-yl)oxy)phenyl)-8-methyl-7-(2,2,2-trifluoroethyl)-6,7,8,9-tetrahydrooxazolo[5,4-f]isoquinolin-2(3H)-one] yielded an IC50 in series [1] of 0.49 nM. Further, in series [2], the half-life was found to be 104 min, the intrinsic clearance (CLint scaled) is 8.9 mL/min/kg and the microsomal CLint came out at 9.8 µL/min/mg. For the same compound, in series [3], half-maximal inhibition (IC50) required 15.6 nM. Also, in series [4], the DC50 was 0.57 nM.
For `C[C@@H]1Cc2c(ccc3[nH]c(=O)oc23)[C@@H](c2c(F)cc(NC3CN(CCCF)C3)cc2F)N1CC(F)(F)F` [Example 10, (6S,8R)-6-(2,6-difluoro-4-((1-(3-fluoropropyl)azetidin-3-yl)amino)phenyl)-8-methyl-7-(2,2,2-trifluoroethyl)-6,7,8,9-tetrahydrooxazolo[5,4-f]isoquinolin-2(3H)-one], in series [1], the IC50 was 0.2 nM. In series [2], the half-life was determined as 116 min, the CLint scaled was found to be 8.1 mL/min/kg and the microsomal CLint is 9 µL/min/mg. The IC50 in series [3] was 7.8 nM. The DC50 in series [4] worked out at 0.41 nM.
